Measured values taken from ChEMBL document CHEMBL1201862, “PubChem BioAssay data set” (2004).
The source made the active and inactive calls.

What was measured:
Beta-galactosidase = Beta-galactosidase (Escherichia coli, UniProt Q8VNN2); assay: PubChem AID 485352; format: functional
[1] = biological target: T1, Type-1 angiotensin II receptor (Homo sapiens, UniProt P30556); assay: AT1 receptor antagonists, dose response, selectivity assay for APJ receptor antagonist project, cell-based, uHTS hits (AID 463214); format: functional;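 further: antagonist potency against angiotensin II stimulated AT1 response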
T1 sequence (P30556 whole entry): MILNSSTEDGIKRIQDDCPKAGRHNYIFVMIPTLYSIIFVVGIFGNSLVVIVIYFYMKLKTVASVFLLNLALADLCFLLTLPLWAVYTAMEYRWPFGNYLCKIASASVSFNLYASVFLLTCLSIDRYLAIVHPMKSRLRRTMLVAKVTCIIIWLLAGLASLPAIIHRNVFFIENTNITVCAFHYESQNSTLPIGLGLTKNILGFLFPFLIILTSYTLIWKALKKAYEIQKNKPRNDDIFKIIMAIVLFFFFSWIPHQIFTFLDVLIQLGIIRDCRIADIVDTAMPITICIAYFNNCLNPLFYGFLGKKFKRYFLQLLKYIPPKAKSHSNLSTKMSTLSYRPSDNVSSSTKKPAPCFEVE

Fatty acid synthase [2] = biological target: T2, Fatty acid synthase (Homo sapiens, UniProt P49327); assay: FAS thioesterase domain inhibitors, dose response, biochemical, endpoint fluorescence intensity, uHTS hits (AID 624327); format: functional;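 further: fluorescence from hydrolysis of an O-methyl fluorescein acyl ester substrate by the enzyme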
Fatty acid synthase [3] = biological target: T2, Fatty acid synthase; assay: FAS thioesterase domain inhibitors, dose response, biochemical, kinetic fluorescence intensity (AID 624326); format: functional;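 further: rate of fluorescence rise from hydrolysis of a fluorogenic O-methyl fluorescein ester substrate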
[4] = HEp-2 cell cytotoxicity, dose response, cytotoxicity control for RSV inhibitor project, HTS (AID 2410); format: functional; settings: human respiratory syncytial virus
[5] = biological target: T3, Apoptotic protease-activating factor 1 (Homo sapiens, UniProt O14727); format: functional
T3 sequence (O14727 whole entry): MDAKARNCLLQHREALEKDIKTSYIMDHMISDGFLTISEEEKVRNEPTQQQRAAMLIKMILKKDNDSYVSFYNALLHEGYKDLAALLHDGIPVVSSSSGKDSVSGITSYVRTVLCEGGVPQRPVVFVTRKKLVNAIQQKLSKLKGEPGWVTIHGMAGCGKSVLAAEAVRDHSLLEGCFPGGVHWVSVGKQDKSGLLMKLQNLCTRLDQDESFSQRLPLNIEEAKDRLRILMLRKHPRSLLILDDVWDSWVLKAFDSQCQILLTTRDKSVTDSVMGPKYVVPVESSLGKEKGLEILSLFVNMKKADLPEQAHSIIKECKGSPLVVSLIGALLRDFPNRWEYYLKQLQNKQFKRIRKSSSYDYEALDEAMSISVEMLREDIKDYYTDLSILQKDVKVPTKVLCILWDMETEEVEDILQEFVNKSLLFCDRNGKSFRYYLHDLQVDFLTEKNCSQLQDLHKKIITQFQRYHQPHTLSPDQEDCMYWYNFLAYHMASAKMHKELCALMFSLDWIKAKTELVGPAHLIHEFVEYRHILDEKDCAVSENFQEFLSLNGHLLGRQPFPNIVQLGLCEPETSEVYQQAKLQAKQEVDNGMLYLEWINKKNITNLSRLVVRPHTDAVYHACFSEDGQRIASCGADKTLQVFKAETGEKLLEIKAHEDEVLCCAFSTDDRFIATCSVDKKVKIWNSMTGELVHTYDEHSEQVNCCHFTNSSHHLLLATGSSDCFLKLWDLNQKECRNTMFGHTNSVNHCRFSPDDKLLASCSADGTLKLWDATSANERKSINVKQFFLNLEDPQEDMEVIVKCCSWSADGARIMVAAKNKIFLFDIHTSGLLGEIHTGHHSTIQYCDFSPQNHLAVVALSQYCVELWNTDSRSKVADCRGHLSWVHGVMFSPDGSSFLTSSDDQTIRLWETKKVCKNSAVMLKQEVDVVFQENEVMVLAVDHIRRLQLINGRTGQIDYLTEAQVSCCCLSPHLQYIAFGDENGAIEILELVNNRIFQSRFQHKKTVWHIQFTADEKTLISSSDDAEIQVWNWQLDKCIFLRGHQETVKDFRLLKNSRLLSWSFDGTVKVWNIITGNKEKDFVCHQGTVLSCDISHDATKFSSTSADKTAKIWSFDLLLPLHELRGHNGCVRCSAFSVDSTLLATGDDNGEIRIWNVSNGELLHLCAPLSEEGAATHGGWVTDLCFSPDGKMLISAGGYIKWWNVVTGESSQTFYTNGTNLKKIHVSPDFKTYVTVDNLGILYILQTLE

[6] = Luminescence Cell-Based Dose Response HTS to Identify Inhibitors of 5'UTR Stem-Loop Driven Prion Protein mRNA Translation in H4 Neuroglioblastoma Cells. [Related pubchem assays: 1827 (Project Summary), 1813 (Primary HTS)]; format: functional
[7] = inhibitors of SNCA 5'UTR-driven reporter translation, confirmation, H4 neuroglioma cells, luminescence (AID 1988); format: functional, cell-based
HEK293 = assay: inhibitors of LMP1-driven NF-kB reporter, dose response, cell-based, HEK293, luciferase, cherry-pick (AID 588343); format: functional; settings: Homo sapiens
[8] = biological target: T4, Latent membrane protein 1 (Human herpesvirus 4 (strain B95-8), UniProt P03230); assay: TES1-eGFP NF-kB reporter inhibition versus Tet-On dsRED, dose response, selectivity assay for LMP1 NF-kB inhibitor project, imaging, HEK293T, dual-color eGFP/dsRED, cherry-picks (AID 588398); format: functional, cell-based
T4 sequence (P03230 whole entry): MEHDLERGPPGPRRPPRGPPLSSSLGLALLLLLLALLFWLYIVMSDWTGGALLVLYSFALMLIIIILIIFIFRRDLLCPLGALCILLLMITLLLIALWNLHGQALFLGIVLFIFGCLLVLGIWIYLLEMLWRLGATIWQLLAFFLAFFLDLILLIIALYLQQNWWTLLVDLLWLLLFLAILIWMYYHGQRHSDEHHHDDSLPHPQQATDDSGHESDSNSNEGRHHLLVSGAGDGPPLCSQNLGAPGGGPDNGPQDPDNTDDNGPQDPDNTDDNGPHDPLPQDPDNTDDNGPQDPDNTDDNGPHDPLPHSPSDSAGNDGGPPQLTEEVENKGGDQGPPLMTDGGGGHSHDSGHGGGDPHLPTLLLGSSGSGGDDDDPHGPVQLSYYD

[9] = biological target: T5, Sentrin-specific protease 8 (Homo sapiens, UniProt Q96LD8); assay: SENP8 protease inhibitors, SAR follow-up, biochemical, luminescence (AID 504501); format: functional
T5 sequence (Q96LD8 whole entry): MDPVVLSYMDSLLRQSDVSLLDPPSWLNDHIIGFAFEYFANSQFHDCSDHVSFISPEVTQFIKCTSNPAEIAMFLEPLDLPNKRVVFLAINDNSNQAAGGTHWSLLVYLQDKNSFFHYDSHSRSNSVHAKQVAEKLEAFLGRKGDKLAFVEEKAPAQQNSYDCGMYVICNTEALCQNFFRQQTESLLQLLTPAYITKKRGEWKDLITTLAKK

Caspase-3 [10] = biological target: T6, Caspase-3 (Homo sapiens, UniProt P42574); assay: caspase-3 inhibitors as off-family protease, SAR follow-up, selectivity assay for SENP protease inhibitor project, biochemical, luminescence, set 2 (AID 588599); format: functional
T6 sequence (P42574 whole entry): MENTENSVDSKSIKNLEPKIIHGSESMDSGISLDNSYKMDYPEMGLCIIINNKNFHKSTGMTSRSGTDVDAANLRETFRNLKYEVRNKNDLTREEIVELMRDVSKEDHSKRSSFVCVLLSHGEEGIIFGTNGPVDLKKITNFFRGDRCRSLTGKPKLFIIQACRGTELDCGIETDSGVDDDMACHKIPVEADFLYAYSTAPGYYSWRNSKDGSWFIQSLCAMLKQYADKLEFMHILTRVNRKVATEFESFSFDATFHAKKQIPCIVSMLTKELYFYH

[11] = biological target: T5, Sentrin-specific protease 8; assay: SENP8 protease inhibitors, SAR follow-up, biochemical, luminescence, set 2 (AID 588601); format: functional
Caspase-3 [12] = biological target: T6, Caspase-3; assay: SAR Analysis of small molecule inhibitors of Sentrin-specific proteases (SENPs) using a Caspase-3 Selectivity assay. [Related pubchem assays (depositor defined):AID2540, AID2599, AID434973, AID489001]; format: functional
[13] = biological target: T7, Sentrin-specific protease 7 (Homo sapiens, UniProt Q9BQF6); assay: SENP7 protease inhibitors, SAR follow-up, biochemical, luminescence, set 2 (AID 588600); format: functional
T7 sequence (Q9BQF6 whole entry): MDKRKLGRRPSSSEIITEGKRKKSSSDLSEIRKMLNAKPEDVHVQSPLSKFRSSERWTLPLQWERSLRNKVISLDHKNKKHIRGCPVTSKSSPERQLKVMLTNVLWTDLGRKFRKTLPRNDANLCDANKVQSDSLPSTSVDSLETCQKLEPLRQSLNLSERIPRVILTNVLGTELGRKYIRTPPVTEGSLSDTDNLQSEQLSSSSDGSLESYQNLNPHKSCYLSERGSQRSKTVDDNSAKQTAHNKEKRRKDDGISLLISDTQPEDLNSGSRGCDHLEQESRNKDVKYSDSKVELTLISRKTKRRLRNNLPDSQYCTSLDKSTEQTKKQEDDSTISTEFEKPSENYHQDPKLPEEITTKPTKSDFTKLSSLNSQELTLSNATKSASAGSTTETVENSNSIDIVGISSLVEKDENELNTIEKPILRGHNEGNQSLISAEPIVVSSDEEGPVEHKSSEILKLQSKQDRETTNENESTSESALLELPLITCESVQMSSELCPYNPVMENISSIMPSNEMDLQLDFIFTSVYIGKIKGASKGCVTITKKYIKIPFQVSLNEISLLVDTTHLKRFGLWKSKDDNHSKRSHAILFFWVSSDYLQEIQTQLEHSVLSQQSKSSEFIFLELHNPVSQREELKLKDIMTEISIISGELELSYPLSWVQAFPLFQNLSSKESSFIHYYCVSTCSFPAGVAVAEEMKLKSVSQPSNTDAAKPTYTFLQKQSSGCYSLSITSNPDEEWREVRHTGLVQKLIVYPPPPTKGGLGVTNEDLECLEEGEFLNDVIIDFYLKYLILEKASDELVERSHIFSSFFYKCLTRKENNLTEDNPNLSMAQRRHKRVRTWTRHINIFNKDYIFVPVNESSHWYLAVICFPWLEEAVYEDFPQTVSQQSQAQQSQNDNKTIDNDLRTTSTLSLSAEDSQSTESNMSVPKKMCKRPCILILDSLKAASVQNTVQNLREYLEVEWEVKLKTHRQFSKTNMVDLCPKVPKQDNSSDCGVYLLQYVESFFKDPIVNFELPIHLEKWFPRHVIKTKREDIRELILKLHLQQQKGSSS

[14] = biological target: T8, Sentrin-specific protease 6 (Homo sapiens, UniProt Q9GZR1); assay: SAR Analysis of small molecule inhibitors of Sentrin-specific protease 6 (SENP6) using a Luminescent assay. [Related pubchem assays (depositor defined):AID2582, AID2599]; format: functional
T8 sequence (Q9GZR1 whole entry): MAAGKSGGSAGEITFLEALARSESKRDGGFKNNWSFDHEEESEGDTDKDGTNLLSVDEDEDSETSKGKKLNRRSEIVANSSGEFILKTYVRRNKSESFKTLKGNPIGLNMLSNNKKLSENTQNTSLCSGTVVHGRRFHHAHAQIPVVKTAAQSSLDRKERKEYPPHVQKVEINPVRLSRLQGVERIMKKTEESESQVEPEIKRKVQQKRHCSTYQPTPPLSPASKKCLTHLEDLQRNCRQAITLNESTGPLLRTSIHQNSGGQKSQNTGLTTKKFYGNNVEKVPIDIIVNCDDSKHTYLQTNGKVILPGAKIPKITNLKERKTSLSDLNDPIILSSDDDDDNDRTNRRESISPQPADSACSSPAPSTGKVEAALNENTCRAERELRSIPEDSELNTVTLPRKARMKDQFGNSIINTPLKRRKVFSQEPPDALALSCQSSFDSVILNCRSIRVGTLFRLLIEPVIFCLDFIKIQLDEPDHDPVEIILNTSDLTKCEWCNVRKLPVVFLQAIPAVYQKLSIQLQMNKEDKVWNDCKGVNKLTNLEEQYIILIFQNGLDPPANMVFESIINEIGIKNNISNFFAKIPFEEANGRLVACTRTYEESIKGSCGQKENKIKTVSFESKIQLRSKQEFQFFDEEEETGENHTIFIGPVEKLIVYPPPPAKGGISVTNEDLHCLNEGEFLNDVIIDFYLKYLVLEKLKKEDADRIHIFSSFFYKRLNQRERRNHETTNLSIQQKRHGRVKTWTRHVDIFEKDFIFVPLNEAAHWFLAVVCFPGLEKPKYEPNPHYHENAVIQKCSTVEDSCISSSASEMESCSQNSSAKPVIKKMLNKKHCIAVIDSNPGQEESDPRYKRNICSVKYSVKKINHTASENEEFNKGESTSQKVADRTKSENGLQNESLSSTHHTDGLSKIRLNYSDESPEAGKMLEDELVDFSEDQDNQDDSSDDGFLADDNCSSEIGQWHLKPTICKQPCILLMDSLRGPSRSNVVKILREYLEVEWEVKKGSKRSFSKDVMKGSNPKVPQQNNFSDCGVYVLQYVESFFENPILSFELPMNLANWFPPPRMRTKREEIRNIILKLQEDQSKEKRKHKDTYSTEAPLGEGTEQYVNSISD

[15] = biological target: T7, Sentrin-specific protease 7; assay: SENP7 protease inhibitors, SAR follow-up, biochemical, luminescence (AID 504497); format: functional

T2 sequence (P49327 whole entry, the tested form may be a part): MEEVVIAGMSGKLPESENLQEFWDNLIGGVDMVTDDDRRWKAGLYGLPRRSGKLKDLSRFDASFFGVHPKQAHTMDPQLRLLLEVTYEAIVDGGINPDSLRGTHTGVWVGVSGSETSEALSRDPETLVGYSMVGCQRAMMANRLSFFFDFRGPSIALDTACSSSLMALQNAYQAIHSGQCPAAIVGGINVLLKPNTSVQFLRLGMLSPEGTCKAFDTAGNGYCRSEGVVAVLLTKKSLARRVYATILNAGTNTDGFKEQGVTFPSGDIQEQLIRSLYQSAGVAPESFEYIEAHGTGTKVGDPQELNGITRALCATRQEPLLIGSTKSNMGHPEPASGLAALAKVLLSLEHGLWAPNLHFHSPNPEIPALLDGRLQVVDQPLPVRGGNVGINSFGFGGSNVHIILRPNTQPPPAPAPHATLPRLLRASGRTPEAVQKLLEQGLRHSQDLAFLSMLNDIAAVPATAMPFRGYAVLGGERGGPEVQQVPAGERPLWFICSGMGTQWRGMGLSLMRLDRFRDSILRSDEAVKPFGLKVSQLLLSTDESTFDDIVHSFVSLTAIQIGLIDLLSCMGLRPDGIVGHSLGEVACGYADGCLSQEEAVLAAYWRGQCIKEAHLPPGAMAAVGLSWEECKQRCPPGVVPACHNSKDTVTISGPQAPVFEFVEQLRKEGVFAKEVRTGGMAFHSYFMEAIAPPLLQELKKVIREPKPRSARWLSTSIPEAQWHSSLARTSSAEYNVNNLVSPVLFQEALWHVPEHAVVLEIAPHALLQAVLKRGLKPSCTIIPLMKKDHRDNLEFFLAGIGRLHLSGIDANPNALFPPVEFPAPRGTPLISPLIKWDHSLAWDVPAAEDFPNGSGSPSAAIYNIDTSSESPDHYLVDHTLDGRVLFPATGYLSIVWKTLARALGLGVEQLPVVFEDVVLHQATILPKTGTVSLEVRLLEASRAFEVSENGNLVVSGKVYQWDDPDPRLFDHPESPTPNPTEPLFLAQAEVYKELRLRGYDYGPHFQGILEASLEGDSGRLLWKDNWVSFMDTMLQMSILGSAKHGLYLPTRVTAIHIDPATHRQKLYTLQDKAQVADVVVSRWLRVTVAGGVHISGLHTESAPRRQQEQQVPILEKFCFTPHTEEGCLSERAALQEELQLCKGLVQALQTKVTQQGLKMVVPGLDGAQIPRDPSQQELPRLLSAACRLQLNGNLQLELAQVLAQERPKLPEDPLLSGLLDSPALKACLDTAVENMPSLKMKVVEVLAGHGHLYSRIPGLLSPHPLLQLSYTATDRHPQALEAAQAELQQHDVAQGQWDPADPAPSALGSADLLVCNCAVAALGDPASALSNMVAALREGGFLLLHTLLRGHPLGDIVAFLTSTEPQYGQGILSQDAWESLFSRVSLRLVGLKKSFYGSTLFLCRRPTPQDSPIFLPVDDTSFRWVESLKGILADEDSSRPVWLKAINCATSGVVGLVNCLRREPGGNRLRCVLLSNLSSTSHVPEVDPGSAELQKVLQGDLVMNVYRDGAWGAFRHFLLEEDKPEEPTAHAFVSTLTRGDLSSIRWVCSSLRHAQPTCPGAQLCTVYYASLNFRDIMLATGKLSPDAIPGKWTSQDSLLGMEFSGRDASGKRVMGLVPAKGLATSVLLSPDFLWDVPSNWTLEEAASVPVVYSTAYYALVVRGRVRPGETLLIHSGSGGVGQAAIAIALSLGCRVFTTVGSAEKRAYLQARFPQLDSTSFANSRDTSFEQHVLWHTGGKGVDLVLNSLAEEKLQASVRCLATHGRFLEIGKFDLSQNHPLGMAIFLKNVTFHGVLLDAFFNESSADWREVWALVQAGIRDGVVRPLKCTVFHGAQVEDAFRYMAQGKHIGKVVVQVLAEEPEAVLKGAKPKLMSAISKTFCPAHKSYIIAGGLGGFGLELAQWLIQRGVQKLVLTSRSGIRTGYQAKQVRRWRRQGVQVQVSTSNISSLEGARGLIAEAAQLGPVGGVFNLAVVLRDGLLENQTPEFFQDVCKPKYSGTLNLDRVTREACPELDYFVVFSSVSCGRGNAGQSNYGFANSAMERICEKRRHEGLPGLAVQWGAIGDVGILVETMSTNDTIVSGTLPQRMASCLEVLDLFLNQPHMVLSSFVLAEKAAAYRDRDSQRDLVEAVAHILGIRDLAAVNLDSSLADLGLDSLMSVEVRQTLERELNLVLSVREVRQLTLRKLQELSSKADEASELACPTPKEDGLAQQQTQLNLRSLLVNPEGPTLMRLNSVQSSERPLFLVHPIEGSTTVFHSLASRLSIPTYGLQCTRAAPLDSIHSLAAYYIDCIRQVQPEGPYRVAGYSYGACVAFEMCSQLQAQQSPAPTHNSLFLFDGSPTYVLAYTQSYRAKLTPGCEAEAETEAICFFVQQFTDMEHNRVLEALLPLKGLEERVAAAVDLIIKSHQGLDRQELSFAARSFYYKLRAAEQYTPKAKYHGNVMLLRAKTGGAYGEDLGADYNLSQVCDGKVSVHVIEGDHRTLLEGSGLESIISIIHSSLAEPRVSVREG
Chain of Beta-galactosidase (Q8VNN2 whole entry): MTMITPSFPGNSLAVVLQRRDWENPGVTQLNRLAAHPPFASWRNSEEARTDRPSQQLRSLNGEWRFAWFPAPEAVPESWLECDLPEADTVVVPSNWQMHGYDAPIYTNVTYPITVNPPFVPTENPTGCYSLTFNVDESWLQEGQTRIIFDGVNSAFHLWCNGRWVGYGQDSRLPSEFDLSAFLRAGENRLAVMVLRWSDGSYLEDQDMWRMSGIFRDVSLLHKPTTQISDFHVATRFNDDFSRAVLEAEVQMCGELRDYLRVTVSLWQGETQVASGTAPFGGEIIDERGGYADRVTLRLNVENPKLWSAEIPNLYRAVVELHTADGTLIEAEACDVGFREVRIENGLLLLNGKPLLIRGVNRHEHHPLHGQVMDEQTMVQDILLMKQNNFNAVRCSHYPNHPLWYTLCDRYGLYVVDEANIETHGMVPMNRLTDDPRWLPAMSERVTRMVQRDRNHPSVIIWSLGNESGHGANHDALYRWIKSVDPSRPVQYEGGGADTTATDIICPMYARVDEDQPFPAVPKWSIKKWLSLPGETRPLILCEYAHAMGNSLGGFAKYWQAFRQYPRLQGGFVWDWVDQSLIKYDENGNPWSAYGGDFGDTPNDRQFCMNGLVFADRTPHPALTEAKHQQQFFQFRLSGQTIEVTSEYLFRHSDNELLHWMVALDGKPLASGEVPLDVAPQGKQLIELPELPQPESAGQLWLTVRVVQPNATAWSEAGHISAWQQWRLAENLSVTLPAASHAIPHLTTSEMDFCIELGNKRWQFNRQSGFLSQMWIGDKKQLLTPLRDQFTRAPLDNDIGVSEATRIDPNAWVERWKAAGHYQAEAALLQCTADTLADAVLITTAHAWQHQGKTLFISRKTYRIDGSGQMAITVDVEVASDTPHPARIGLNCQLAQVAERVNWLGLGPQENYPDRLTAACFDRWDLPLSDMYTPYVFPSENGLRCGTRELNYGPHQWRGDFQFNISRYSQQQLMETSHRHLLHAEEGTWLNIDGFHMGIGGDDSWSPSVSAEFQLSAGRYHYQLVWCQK

## O=C(CCc1ccccc1)OCC(=O)c1cccc([N+](=O)[O-])c1
Beta-galactosidase
  EC50: > 40 µM (inactive)
[1]
  IC50: 19.2 µM (active)
Fatty acid synthase [2]
  IC50: 11.3 µM (active)
Fatty acid synthase [3]
  IC50: 9.4 µM (active)

## COc1ccc(-n2nc3ccc(N)cc3n2)cc1Cl
[4]
  CC50: 47.1 µM (active)
[5]
  IC50: > 100 µM (inactive)

## Cc1ccc(NC(=O)c2ccc3c(c2)OCCO3)nc1
[6]
  EC50: 11.3 µM (active)
[7]
  EC50: 8.65 µM (inconclusive)
HEK293
  AC50: 2.56 µM (active)
[8]
  AC50: 186 µM (active)

## O=C(Nc1nc2ccc(Cl)cc2s1)c1cccs1
[9]
  IC50: 1.5 µM (active)
Caspase-3 [10]
  IC50: 2.07 µM (active)
[11]
  IC50: 1.25 µM (active)
Caspase-3 [12]
  IC50: 2 µM (active)
[13]
  IC50: 1.39 µM (active)
[14]
  IC50: 1.3 µM (active)
[15]
  IC50: 1.2 µM (active)

## CC(=NNC(=S)N1CCCC1)c1ccccn1
HEK293
  AC50: 0.0151 µM (active)
[8]
  AC50: 0.444 µM (active)

## O=C(CCNS(=O)(=O)c1ccccc1)NCCSc1ccc(Br)cc1
[5]
  IC50: > 100 µM (inactive)
